Measurements taken from US7875607B2, “7,8-bicycloakyl-chroman derivatives” (Ampere Life Sciences, Inc., priority 2004, dated 2011).

What was measured:
[1] = tested on: LTB4 release from MPRO cell line; assay: LTB4-cell assay; type: cell-based; details: Mus musculus; differentiated MPRO cells, 1 μM A23187, 1 hour; read-out: EC50, inhibition of LTB4
Protocol: This procedure was used for measuring the release of the leukotriene LTB4 from a neutrophil cell line using a competitive ELISA technique.
A mouse promyelocytic cell line (MPRO) was used in this assay. These cells are committed immature neutrophils that can be differentiated into mature neutrophils by treatment with 10 μM all-trans retinoic acid for 72 hours
Following 72 hours of differentiation, cells were stimulated with 1 μM of a calcium ionophore (A23187) in the presence or absence of test compound or vehicle for 1 hour at 37° C. After this time, supernatant was removed from the cells and the LTB4 levels were determined following manufacturer's instructions, using a Leukotriene B4 EIA kit from Cayman (Cat # 520111)
The negative controls were media samples from differentiated but unstimulated cells.
The compounds were screened at 5 concentrations in quadruplicate starting at 10 μM

[2] = tested on: dopaminergic neuronal cell line; assay: High glutamate-induced oxidative stress assay (HGOS); type: cell-based; details: Mus musculus; 30 mM glutamate, 16 hrs; read-out: EC50, protection against HGOS cell injury and cell death
Description: Protection against redox stress can be further evaluated in cell culture using high glutamate induced oxidative stress (HGOS) in mouse dopaminergic cell lines. The cytotoxic effect of glutamate is not due to excitotoxicity, as this cell line is devoid of inotropic glutamate receptors. Rather, the glutamate-induced toxicity of dopaminergic cells is associated with an inhibition of cystine transport which subsequently leads to depletion of intracellular glutathione (GSH) levels (Murphy T. H., et al. Neuron 2, 1547-1558, 1989), activation of neuronal 12-lipoxygenase (Li, Y. et al., Neuron 19, 453-463, 1997), increased ROS production (Tan S. et al., J. Cell Biol. 141, 1423-1432, 1998) and elevated intracellular Ca^2+ (Li, Y. et al., see supra). Some molecules were measured for their ability to protect cells against glutamate-induced stress and the assay is detailed in Examples.
This procedure was used to induce high glutamate-induced oxidative stress (HGOS) in a dopaminergic neuronal cell line. Using this assay the potency and efficacy of test articles against HGOS neuronal cell injury and cell death was established in a high throughput manner.
The cells were seeded into 96-well plates at a density of 2000 per well and left to grow for 72 hours in a 33° C. incubator with 5% CO2 in air atmosphere. The passage number of the cells for each assay experiment were no later than p11 in order to minimize experimental variation.
All compounds were dissolved in DMEM-No Glu containing 1 mM glucose, 30 mM glutamate and 1×Pen/Strep. DMEM-No Glu with 1 mM glucose and 1×P/S was used as the negative control, DMEM-No Glucose with 1 mM glucose, […] was used as a positive control and 100 μM Glutathione was added to the positive control as a standard. All of the procedures for this involving the making and dilution of compounds were performed using aseptic conditions and with minimal light.
The plates were removed from the incubator and examined under the microscope for morphological appearance and density. Using an aseptic technique and an 8-channel aspirator the media was carefully removed from the cells and replaced with 200 μl of 1×HBSS. This was done as quickly as possible to prevent the cells drying out. The plates were then placed in the humidified 37° C. incubators of the Biomek 2000 Side Loader. Four plates were washed at a time so as to minimize the time that the cells were sitting in 1×HBSS prior to addition of the compound test solution.
The Beckman Biomek workstations were used to load the compounds and controls from the mother plates onto the cell plates that were prewashed with HBSS under sterile conditions. The plates were incubated in the upper HTS incubator at 37° C. in 5% CO2 for exactly 16 hrs. The following day, using the Beckman Biomek workstations, the plates were removed from the incubator. Using Cell Tracker Addition, the compounds were removed from the plates, washed once with […] of pre-warmed 1×HBSS and then 100 μL of 5 μM Cell Tracker Green was added to each well. The plates were incubated at 37° C. for 30 min to allow the dye to enter the cell and be cleaved by the esterases. After washing the cells twice with prewarmed 1×HBSS, the plates were read with the 485 excitation; 538 emission filter pair on a Fluoroskan.

[3] = tested on: LTB4 production in heparinized whole blood; assay: Inhibition of LTB4 production in blood; type: cell-based, rat or mouse; details: 20 μM A23187, read-out: EC50, protection against LTB4
Protocol: The blood was collected in heparinized tubes or syringes to prevent clotting. Heparin was at 20 USP U/ml. About 3-5 ml of blood was collected per rat and about 0.5-0.75 ml per mouse. This assay required 200 μl/data point, therefore a 96 well plate requires 20 ml.
The Calcium ionophore A23187 was prepared as a 10 mM stock solution in DMSO and the test agent is prepared in DMSO so that <1 μl DMSO will be added to the well
200 μl blood per well were added in a round bottom 96 well clear plastic 96 well plate followed by the test agent. After 10 minutes incubation at 37° C., 5 μl of Calcium ionophore A23187 for a final concentration of 20 μM were added and mixed, and further incubated for 30 min. After 1000×g centrifugation to pellet blood cells, 20 μl plasma was carefully removed.
20 μl plasma were added to 80 μl methanol to precipitate protein and mixed. This was further incubated 10 min. at room temperature and centrifuged at 1000×g to pellet protein.
Following manufacturer's instructions, the commercially available EIA kit was used to subsequently measure the LTB4 production in the samples. The LTB4 levels produced in the vehicle control sample were then compared to those in which the test compound had been added. From this a percent inhibition of LTB4 production by each concentration of test compound was calculated and the IC50 for inhibition of LTB4 production for each test compound was determined.

[4] = target: T1, human recombinant 5-lipoxygenase (Homo sapiens, UniProt P09917); assay: 5-Lipoxygenase enzyme assay; type: biochemical; details: 70 μM arachidonic acid, pH 7.4
T1 construct: purchased Cayman 60402
T1 sequence (P09917 1-674): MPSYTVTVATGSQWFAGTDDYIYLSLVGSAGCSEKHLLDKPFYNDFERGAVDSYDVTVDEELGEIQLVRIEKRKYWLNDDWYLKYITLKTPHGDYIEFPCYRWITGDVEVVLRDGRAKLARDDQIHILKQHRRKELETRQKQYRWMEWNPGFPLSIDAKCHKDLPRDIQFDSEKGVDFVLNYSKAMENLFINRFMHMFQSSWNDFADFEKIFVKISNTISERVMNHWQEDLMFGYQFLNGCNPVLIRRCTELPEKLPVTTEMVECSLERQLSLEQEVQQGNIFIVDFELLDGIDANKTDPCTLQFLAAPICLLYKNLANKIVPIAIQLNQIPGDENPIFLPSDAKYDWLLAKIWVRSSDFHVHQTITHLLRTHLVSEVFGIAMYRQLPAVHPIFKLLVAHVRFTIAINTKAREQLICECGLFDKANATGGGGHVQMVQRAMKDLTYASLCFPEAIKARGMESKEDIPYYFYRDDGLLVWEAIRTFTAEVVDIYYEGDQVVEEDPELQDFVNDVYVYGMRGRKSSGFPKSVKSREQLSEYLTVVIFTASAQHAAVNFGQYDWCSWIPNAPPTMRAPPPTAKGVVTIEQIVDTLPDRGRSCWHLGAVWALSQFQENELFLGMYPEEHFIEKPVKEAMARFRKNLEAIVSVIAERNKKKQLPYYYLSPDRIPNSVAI
Protocol: This procedure was used for measuring the enzymatic activity of human recombinant 5-lipoxygenase using a […] method based on the ferric oxidation of xylenol orange.
Human recombinant 5-lipoxygenase (Cayman Cat # 60402) was used in this assay. The test compound and/or vehicle was added to 0.5U 5-lipoxygenase in 50 mM Tris-HCl buffer, pH 7.4. The reaction was initiated by addition of 70 μM arachidonic acid in Tris-HCl buffer, pH 7.4, and terminated after a 10 minute incubation at room temperature by addition of FOX reagent (25 mM sulphuric acid, 100 μM xylenol orange, 100 μM iron (II) sulphate, methanol:water 9:1). The yellow color of acidified xylenol orange was converted to a blue color by the lipid hydroperoxide-mediated oxidation of Fe^2+ ions and the interaction of the resulting Fe^3+ ions with the dye. The complex was allowed to form during a 1 hour incubation at room temperature with shaking. Absorbance of the Fe^3+ complex was then measured at […] using a spectrophotometer.
Negative controls contained enzyme during the incubation step but substrate was not added until after the FOX reagent.
Compounds were screened at 5 concentrations in triplicate starting at 10 μM

[5] = tested on: ELAM (E-selectin) expression in endothelial cells; assay: Cell-ELAM assay; type: cell-based; details: 10 μg/ml LPS and 100 pg/ml IL-1β, 6 hours
Description: In vitro cell-based assays for inflammation are well known in the art, for example e-selectin (also named Endothelial Leukocyte Adhesion Molecule or ELAM) or C-reactive protein (CRP). The ELAM assay measures in vitro activity of the test compounds in reducing expression of ELAM in activated endothelial cells. Briefly, endothelial cells are […] by adding known activators such as lipopolysaccharides, TNF or IL-1, alone or in some combination. Activated cells produce ELAM, which can be measured using, for example, an E-selectin monoclonal antibody-based ELISA assay. Similarly the CRP assay measures in vitro activity of test compounds in reducing expression of CRP in Human Hep3B epithelial cells. The activated cells produce CRP, which can be measured with a CRP ELISA assay.
Endothelial-Leukocyte Adhesion Molecule (ELAM), also known as E-selectin, was expressed on the surface of endothelial cells. In this assay, lipopolysaccharide (LPS) and IL-1β were used to stimulate the expression of ELAM; test agents were tested for their abilities to reduce this expression, in accordance with studies showing that reduction of leukocyte adhesion to endothelial cell surface was associated with decreased cellular damage (e.g., Takada, M., Et al., Transplantation 64: 1520-25, 1997; Steinberg, J. B., et al., J. Heart Lung Trans. 13:306-313, 1994).
Endothelial cells may be selected from any of a number of sources and cultured according to methods known in the art; including, for example, coronary artery endothelial cells, human brain microvascular endothelial cells (HBMEC; Hess, D. C., et al., Neurosci. Lett. 213(1): 37-40, 1996), or lung endothelial cells. Cells were conveniently cultured in 96-well plates. Cells were stimulated by adding a solution to each well containing 10 μg/ml LPS and 100 pg/ml IL-1β for 6 hours in the presence of test agent (specific concentrations and time may be adjusted depending on the cell type) Treatment buffer was removed and replaced with pre-warmed Fixing Solution® (100 μl/well) for 25 minutes at room temperature. Cells were then washed 3×, then incubated with Blocking Buffer (PBS+2% FBS) for 25 minutes at room temperature. Blocking Buffer containing Monoclonal E-Selectin Antibody (1:750, Sigma Catalog # S-9555) was added to each well. Plates were sealed and stored at 4° overnight. Plates were washed 4× with 160 μL Blocking Buffer per well. Second Antibody-HRP diluted 1:5000 in Blocking Buffer was then added (100 μL/well), and plates were incubated at room temperature (protected from light) for two hours. Plates were then washed 4× with Blocking Buffer before addition of 100 μL of ABTS Substrate solution at room temperature (Zymed, Catalog # 00-2024). Wells were allowed to develop for 35 minutes, before measurement at 402 nm in a Fluoroskan® Reader with shake program for 10 seconds. Positive results were recorded as a decrease in ELAM concentration in tested wells, as compared to control wells.

| IC50 [4] | EC50 [5] | SMILES | EC50 [1] | EC50 [2] | EC50 [3] |
| --- | --- | --- | --- | --- | --- |
| ≤ 5 µM | ≤ 30 µM | CC(C)=CCc1c(O)c2c(c3c1CCC(C)(C)O3)C1C=CC2CC1 (stereo not shown) [2,2-Dimethyl-5-(3-methyl-but-2-enyl)-3,4,7,10-tetrahydro-7,10-ethano-2H-benzo[h]chromen-6-ol] |  | ≤ 1 µM |  |
|  | ≤ 30 µM | CC1(CCCl)CCc2cc(O)c3c(c2O1)C1CCC3C1 (stereo not shown) [2-(2-Chloro-ethyl)-2-methyl-3,4,7,8,9,10-hexahydro-7,10-methano-2H-benzo[h]chromen-6-ol] |  | ≤ 1 µM |  |
|  |  | CC1(CCCCl)CCc2cc(O)c3c(c2O1)C1CCC3CC1 (stereo not shown) [2-(3-Chloro-propyl)-2-methyl-3,4,7,8,9,10-hexahydro-7,10-ethano-2H-benzo[h]chromen-6-ol] | ≤ 5 µM | ≤ 1 µM | ≤ 10 µM |
|  | ≤ 30 µM | CC1(CCCSc2nc3ccccc3s2)CCc2cc(O)c3c(c2O1)C1CCC3C1 (stereo not shown) [2-[3-(Benzothiazol-2-ylsulfanyl)-propyl]-2-methyl-3,4,7,8,9,10-hexahydro-7,10-methano-2H-benzo[h]chromen-6-ol] |  | ≤ 1 µM |  |
| ≤ 5 µM |  | CC1(C)CCc2c(Br)c(O)c3c(c2O1)C1CCC3CC1 [5-Bromo-2,2-dimethyl-3,4,7,8,9,10-hexahydro-7,10-ethano-2H-benzo[h]chromen-6-ol] |  | ≤ 1 µM | ≤ 10 µM |
|  | ≤ 30 µM | CC1(C)CCc2c(Br)c(O)c3c(c2O1)C1CCC3C1 (stereo not shown) [5-Bromo-2,2-dimethyl-3,4,7,8,9,10-hexahydro-7,10-methano-2H-benzo[h]chromen-6-ol] |  | ≤ 1 µM |  |

| SMILES | IC50 [4] | EC50 [5] | EC50 [1] | EC50 [2] | EC50 [3] |
| --- | --- | --- | --- | --- | --- |
| CC1(C)CCc2cc(O)c3c(c2O1)C1C=CC3C1 (stereo not shown) [2,2-Dimethyl-3,4,7,10-tetrahydro-7,10-methano-2H-benzo[h]chromen-6-ol] | ≤ 5 µM |  | ≤ 5 µM | ≤ 1 µM | ≤ 10 µM |
